Legend:
Experiment in all cases: LC-ESI-MS of natively purified enzyme; activity of apo-enzyme restored by FMN
Assay type in all cases: binding
Conditions in all cases: native purification; apo-enzyme assay with 5 uM FMN, pH 7, 35 °C
EF0655 = molecular target: T1, EF0655 (Enterococcus faecalis, UniProt Q838B7)
T1 construct: gene EF_0655; E. coli XL1Blue; about 22 kDa; forward primer starts after the initiator Met
T1 sequence (Q838B7 2-198): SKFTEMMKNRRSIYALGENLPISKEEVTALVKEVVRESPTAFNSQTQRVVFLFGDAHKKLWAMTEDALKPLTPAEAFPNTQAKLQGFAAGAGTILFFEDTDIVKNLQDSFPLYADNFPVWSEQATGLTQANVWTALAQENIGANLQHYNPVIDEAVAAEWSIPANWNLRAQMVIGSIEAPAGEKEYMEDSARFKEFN

EF0648 = molecular target: T2, EF0648 (Enterococcus faecalis, UniProt Q838C2)
T2 construct: gene EF_0648; E. coli XL1Blue; about 25 kDa
T2 sequence (Q838C2 2-205): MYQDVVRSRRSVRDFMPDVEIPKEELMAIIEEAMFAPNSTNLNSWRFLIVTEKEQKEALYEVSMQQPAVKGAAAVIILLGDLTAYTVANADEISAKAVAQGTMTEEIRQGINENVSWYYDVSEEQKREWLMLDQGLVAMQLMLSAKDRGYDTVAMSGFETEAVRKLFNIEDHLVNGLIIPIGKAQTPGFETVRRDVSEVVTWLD

EF0404 = molecular target: T3, EF0404 (Enterococcus faecalis, UniProt Q838N5)
T3 construct: gene EF_0404; E. coli XL1Blue; about 25 kDa; forward primer starts after the initiator Met
T3 sequence (Q838N5 2-211): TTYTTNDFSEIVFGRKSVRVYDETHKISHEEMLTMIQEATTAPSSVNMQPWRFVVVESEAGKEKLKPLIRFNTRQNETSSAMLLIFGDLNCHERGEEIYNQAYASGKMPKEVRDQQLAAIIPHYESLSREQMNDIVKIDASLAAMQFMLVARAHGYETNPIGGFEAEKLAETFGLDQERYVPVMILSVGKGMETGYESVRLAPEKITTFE

EF1181 = molecular target: T4, EF1181 (Enterococcus faecalis, UniProt Q836D4)
T4 construct: gene EF_1181; E. coli XL1Blue; about 30 kDa; forward primer starts after the initiator Met
T4 sequence (Q836D4 2-244): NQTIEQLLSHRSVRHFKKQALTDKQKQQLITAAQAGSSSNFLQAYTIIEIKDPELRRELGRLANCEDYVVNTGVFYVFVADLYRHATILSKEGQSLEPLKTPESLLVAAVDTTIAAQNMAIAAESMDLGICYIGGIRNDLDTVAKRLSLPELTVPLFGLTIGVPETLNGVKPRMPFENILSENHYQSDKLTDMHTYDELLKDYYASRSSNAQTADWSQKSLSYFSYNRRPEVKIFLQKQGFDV

AzoA = molecular target: T5, AzoA (Enterococcus faecalis, UniProt Q831B2)
T5 construct: gene azoR; E. coli XL1Blue; about 25 kDa; forward primer starts after the initiator Met
T5 sequence (Q831B2 2-208): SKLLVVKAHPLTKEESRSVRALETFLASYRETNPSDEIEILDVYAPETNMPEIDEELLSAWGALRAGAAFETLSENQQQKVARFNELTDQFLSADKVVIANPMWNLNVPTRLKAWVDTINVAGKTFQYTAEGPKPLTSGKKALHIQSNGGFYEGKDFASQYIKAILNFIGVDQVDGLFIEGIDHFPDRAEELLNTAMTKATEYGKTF

Cc1cc2nc3c(=O)[nH]c(=O)nc-3n(C[C@H](O)[C@H](O)[C@H](O)COP(=O)(O)O)c2cc1C [FMN] was tested. Which “LC-ESI-MS of natively purified enzyme; activity of apo-enzyme restored by FMN” value (from here on “LC-ESI-MS of natively purified enzyme”) (EF0655) did it give?
Its value is “confirmed FMN presence for the enzymes purified using native conditions”.

And the “LC-ESI-MS of natively purified enzyme” value (EF0648)?
Its value is “confirmed FMN presence for the enzymes purified using native conditions”.

And the “LC-ESI-MS of natively purified enzyme” value (EF0404)?
The value was “confirmed FMN presence for the enzymes purified using native conditions”.

What about the “LC-ESI-MS of natively purified enzyme” value (EF1181) of the same compound?
The value was “confirmed FMN presence for the enzymes purified using native conditions”.

And the “LC-ESI-MS of natively purified enzyme” value (AzoA)?
Its value is “confirmed FMN presence for the enzymes purified using native conditions”.
